Reference: patent US11166924B2, “N-methyl-d-aspartate receptor allosteric modulators and methods for their use” (Qingdao Primedicine Pharmaceutical Company, Ltd., priority 2016, dated 2021)
Read-outs that look alike come from different tables or passages of the source.

Experiments:
Type in all cases: cell-based
GluN1/GluN2A^Q111A = molecular target: T1, GluN1/GluN2A^Q111A (Rattus norvegicus, UniProt P35439+Q00959, Q111A); experiment: Patch clamp in HEK293 cells expressing mutant GluN1/GluN2A Q111A
T1 construct: expressed in transfected cells; host or cells: HEK293
Method: (§1) Whole cell patch-clamp recordings were performed under voltage-clamp mode using an Axopatch 200B or 1D patch-clamp amplifier (Molecular Devices). Whole-cell currents were recorded at a holding potential of −60 mV unless indicated elsewhere, and signals were filtered at 2 kHz, digitized at 10 kHz (Digidata 1322A). Recording pipettes (3-5 MΩ) were filled with intracellular solution containing (mM): CsCl 140, HEPES 10, Mg-ATP 4, QX-314 5, pH 7.20; osmolarity, 290-295 mOsm. BAPTA (10 mM) was added in the intracellular solution (unless otherwise specified). The coverslips were continuously superfused with extracellular solution containing (mM): NaCl 140, KCl 5.4, HEPES 10, CaCl2 1.3, glucose 20, pH 7.4; osmolarity, 305-315 mOsm. NMDA-induced currents were applied by NMDA through perfusion fast-step (Warner Instruments). With perfusion fast-step system, NMDA application was achieved by using a two-square barrel glass tubing and depending on the age of the cultured neurons, CNQX (10 μM), TTX (0.5 μM) or BIC (10 μM) were added in the extracellular solution to minimize the activation of ionotropic glutamate receptors and voltage-gated sodium channels, respectively. All experiments were performed at room temperature. Recordings from at least six HEK293 cells/neurons were performed for all active compounds. Data were pooled among HEK293 cells or primary neurons and composite dose-response data were fitted by the equation Percentage Response=100×Relative Efficacy/[1+(EC50/Concentration)nH], where EC50 is the concentration of agonist that produces a half-maximal response, relative efficacy is the response at maximally effective concentration relative to the maximal response of glutamate, and nH is the Hill slope.
(§2) The site-directed mutagenesis of GluN1 or GluN2A subunits were performed by using the QuikChange method (Stratagene). All mutant clones were confirmed by DNA sequencing. Wild-type or mutant subunits were transfected in HEK293 cells and subjected to electrophysiology examinations. […]

[1] = molecular target: NMDARs in cultured hippocampal neurons (Rattus norvegicus, UniProt P35439+Q00959); experiment: Whole-cell voltage clamp recordings of NMDAR currents in cultured hippocampal/cortical neurons
GluN1/GluN2A^A108G = molecular target: T2, GluN1/GluN2A^A108G (Rattus norvegicus, UniProt P35439+Q00959, A108G); experiment: Patch clamp in HEK293 cells expressing mutant GluN1/GluN2A A108G
T2 construct: expressed in transfected cells; host or cells: HEK293
Method: as §1, with “Data were pooled among HEK293 cells or primary neurons and composite dose-response data were fitted by the equation Percentage Response=100×Relative Efficacy/[1+(EC50/Concentration)nH], where EC50 is the concentration of agonist that produces a half-maximal response, relative efficacy is the response at maximally effective concentration relative to the maximal response of glutamate, and nH is the Hill slope.” left out

GluN1/GluN2A NMDARs = molecular target: T3, GluN1/GluN2A NMDARs (Rattus norvegicus, UniProt P35439+Q00959); experiment: Whole-cell patch clamp recordings in HEK293 cells transfected with GluN1/GluN2A; conditions: for Enhancement of NMDA-mediated currents: compared to glutamate alone; for Selectivity for GluN1/GluN2A versus GluN1/GluN2B NMDARs: FIG. 2, HEK293 cells expressing GluN1/GluN2A and GluN1/GluN2B; for Normalized Potentiation: positive modulation of GluN1/GluN2A NMDARs, concentration not given
T3 construct: expressed in transfected cells; host or cells: HEK293
Procedure, shortened: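 Rat GluN1/GluN2A (1:1) transiently expressed in HEK293, recorded 48 h post-transfection by whole-cell voltage clamp at −60 mV, room temperature. CsCl/BAPTA pipette solution, pH 7.4 bath, glutamate/NMDA-evoked currents by fast perfusion. ≥6 cells per compound; EC50, relative efficacy versus maximal glutamate response and Hill slope from pooled dose-response fits.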

GluN1/GluN2A^F177S = molecular target: T4, GluN1/GluN2A^F177S (Rattus norvegicus, UniProt P35439+Q00959, F177S); experiment: Patch clamp in HEK293 cells expressing mutant GluN1/GluN2A F177S
T4 construct: expressed in transfected cells; host or cells: HEK293
Method: as §1, §2

GluN1/GluN2B NMDARs = molecular target: T5, GluN1/GluN2B NMDARs (Rattus norvegicus, UniProt P35439+Q00960); experiment: Whole-cell patch clamp recordings in HEK293 cells transfected with GluN1/GluN2B
T5 construct: expressed in transfected cells; host or cells: HEK293

T1 sequence (Q00959 23-1464 Q111A, other chains not shown): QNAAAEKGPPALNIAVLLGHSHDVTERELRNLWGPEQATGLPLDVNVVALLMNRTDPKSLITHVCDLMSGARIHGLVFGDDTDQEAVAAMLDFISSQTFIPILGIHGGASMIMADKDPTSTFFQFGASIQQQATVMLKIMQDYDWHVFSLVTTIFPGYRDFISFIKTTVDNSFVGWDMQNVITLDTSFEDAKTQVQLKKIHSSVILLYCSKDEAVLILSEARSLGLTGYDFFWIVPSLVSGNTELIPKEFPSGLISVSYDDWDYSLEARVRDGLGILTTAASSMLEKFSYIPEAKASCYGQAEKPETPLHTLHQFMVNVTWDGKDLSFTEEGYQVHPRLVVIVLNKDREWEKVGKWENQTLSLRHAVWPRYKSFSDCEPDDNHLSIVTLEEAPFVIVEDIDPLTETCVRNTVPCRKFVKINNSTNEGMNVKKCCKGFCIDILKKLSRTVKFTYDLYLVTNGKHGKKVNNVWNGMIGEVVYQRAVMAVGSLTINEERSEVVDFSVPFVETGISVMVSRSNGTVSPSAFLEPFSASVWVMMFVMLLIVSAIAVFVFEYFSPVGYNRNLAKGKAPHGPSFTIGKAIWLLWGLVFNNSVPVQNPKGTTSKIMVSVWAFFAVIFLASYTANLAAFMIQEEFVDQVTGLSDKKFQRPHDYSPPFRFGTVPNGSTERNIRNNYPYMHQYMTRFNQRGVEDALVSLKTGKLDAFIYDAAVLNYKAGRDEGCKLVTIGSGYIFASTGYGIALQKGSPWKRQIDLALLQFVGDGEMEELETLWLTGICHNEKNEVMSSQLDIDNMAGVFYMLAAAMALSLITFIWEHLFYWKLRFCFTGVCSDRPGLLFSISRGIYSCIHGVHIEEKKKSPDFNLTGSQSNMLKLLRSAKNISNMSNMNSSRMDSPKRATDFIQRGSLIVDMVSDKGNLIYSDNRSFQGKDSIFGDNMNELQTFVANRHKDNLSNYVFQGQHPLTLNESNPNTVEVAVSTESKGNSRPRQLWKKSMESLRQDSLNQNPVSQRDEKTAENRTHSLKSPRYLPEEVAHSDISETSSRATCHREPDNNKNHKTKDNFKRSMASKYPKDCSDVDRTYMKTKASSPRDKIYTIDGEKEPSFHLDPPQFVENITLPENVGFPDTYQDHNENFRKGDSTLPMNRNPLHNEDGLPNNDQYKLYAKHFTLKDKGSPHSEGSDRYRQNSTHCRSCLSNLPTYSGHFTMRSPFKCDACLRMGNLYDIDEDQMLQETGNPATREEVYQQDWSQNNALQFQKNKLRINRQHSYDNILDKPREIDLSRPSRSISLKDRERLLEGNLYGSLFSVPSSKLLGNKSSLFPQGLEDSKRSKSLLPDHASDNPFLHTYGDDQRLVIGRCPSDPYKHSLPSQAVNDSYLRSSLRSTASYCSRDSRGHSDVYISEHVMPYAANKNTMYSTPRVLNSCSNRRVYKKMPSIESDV
Sequence of NMDARs in cultured hippocampal neurons (Q00959 23-1464, other chains not shown): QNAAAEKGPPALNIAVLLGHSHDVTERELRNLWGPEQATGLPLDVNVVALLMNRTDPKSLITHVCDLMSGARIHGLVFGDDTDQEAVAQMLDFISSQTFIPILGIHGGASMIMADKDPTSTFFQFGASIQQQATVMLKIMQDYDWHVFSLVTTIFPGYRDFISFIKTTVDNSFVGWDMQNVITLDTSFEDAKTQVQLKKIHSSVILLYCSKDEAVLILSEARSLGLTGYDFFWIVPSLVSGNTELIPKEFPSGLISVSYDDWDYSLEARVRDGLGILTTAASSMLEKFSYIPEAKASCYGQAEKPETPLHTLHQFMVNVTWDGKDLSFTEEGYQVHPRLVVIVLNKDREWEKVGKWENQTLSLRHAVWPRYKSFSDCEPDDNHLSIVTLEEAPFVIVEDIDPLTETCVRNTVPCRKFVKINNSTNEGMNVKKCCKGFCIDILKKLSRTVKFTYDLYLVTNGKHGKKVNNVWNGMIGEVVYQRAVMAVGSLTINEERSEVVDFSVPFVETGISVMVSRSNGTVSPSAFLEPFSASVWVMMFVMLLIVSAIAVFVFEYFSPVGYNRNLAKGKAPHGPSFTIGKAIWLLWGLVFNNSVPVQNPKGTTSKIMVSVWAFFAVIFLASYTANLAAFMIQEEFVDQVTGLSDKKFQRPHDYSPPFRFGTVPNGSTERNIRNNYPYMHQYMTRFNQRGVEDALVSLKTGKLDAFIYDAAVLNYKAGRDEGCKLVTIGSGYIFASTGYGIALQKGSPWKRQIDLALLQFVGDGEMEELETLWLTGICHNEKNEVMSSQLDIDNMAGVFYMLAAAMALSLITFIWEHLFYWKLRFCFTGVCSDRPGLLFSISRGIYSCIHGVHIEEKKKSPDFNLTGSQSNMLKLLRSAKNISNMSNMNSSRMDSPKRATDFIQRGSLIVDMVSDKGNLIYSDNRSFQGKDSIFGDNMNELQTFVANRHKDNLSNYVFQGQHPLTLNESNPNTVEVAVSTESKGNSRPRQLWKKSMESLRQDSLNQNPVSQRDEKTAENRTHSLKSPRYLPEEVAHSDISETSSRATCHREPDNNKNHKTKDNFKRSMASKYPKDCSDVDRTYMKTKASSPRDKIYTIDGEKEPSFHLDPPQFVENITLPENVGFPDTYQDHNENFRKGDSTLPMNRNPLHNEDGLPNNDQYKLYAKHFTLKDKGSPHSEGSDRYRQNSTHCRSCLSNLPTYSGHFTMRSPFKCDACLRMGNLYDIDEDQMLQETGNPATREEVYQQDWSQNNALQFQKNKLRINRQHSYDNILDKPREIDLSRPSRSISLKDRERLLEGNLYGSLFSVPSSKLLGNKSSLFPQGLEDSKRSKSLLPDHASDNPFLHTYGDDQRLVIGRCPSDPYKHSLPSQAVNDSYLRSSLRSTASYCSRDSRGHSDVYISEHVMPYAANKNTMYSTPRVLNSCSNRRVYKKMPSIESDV
T3 sequence (Q00959 23-1464, other chains not shown): as above

## CCOc1cc(Cl)c(Cl)c(/C=N/NC(=O)c2ccccc2Br)c1O [Npam43, (E)-2-bromo-N′-(2,3-dichloro-5-ethoxy-6-hydroxybenzylidene)benzohydrazide]
GluN1/GluN2A^Q111A; GluN2A Q111A, normalized to Npam43 response in wild-type GluN1/GluN2A
  Net Difference potentiation: −38.4±0.78%
GluN1/GluN2A^Q111A; Table 3, GluN2A Q111A
  Relative potentiation: 129 ± 6.7%
[1]; 10 μM, read-out: Potentiation at saturation point, above control level baseline
  activation at 10 µM: 322 ± 27%
[1]; FIG. 12, with ifenprodril, NVP-AAM077, AP5 controls
  Selective potentiation of GluN1/GluN2A NMDARs in hippocampal neurons: selectively potentiates GluN1/GluN2A NMDARs
[1]; Npam43 5 μM
  Shift of NMDA dose-response curve: shifted left
GluN1/GluN2A^A108G; Table 3
  Relative potentiation: 210 ± 9.0%
GluN1/GluN2A^A108G; normalized to wild-type
  Net Difference potentiation: +0.48 ± 0.01%
GluN1/GluN2A NMDARs
  Currents evoked by compound on its own: did not evoke currents on its own
  Selectivity for GluN1/GluN2A versus GluN1/GluN2B NMDARs: selective for GluN1/GluN2A NMDARs
GluN1/GluN2A NMDARs; 10 μM co-applied with co-agonists
  Enhancement of NMDA-mediated currents: dramatically enhanced
GluN1/GluN2A NMDARs; Table 1
  Normalized Potentiation: 363.52 ± 27.3%
GluN1/GluN2A NMDARs; Table 1, potentiation, read-out: EC50
  EC50: 270 nM
GluN1/GluN2A NMDARs; Table 3, GluN1^WT/GluN2A^WT
  Relative potentiation: 209 ± 6.7%
GluN1/GluN2A NMDARs; dose-response, FIG. 9
  Saturation of enhancement relative to co-agonists alone baseline: ~350%
GluN1/GluN2A NMDARs; dose-response, FIG. 9, read-out: EC50 of enhancement of GluN1/GluN2A currents
  EC50: 240 ± 50 nM
GluN1/GluN2A NMDARs; dose-response, FIG. 9, read-out: pEC50 of enhancement of GluN1/GluN2A currents (converted)
  EC50: ~243 nM
GluN1/GluN2A^F177S; GluN2A F177S, normalized to wild-type
  Net Difference potentiation: −61.7 ± 0.03%
GluN1/GluN2A^F177S; Table 3, GluN2A F177S
  Relative potentiation: 79.9 ± 2.6%
GluN1/GluN2B NMDARs; 10 μM
  Potentiation of NMDAR currents: did not exhibit potentiation
GluN1/GluN2B NMDARs; GluN2B-containing NMDARs recordings
  Dose-dependent enhancement of currents: No dose-dependent enhancement of currents

## COc1cccc(/C=N/NC(=O)c2ccccc2C)c1O [Npam02, (E)-N′-(2-hydroxy-3-methoxybenzylidene)-2-methylbenzohydrazide]
GluN1/GluN2A^Q111A; 100 μM, FIG. 8c
  Modulation effect, GluN2A Gln111Ala: 30.69±1.60%
[1]
  Currents induced by compound on its own: not able to induce inward or outward currents on its own
[1]; 100 μM bath, NMDA 5 uM, glycine 2 μM, compared to NMDA control, read-out: Modulation of NMDAR currents
  activation at 100 µM: 43 ± 6.55%
GluN1/GluN2A NMDARs; 100 μM alone
  Currents induced by compound applied alone: no changes of inward or outward currents
GluN1/GluN2A NMDARs; 100 μM co-applied with co-agonists
  Enhancement of NMDA-mediated currents: 38.85±3.70%
GluN1/GluN2A NMDARs; 100 μM, wild-type GluN1/GluN2A, FIG. 8c
  Modulation effect, wild-type: 41.75±2.62%
GluN1/GluN2A NMDARs; 200 μM co-applied with co-agonists
  Enhancement of NMDA-mediated currents: 71.69±5.03%
GluN1/GluN2A NMDARs
  Selectivity for GluN1/GluN2A versus GluN1/GluN2B NMDARs: selective for GluN1/GluN2A NMDARs
GluN1/GluN2A NMDARs; Table 1
  Normalized Potentiation: 243.57 ± 24.81%
GluN1/GluN2A^F177S; 100 μM, FIG. 8c
  Modulation effect, GluN2A Phe177Ser: 22.86±1.12%
GluN1/GluN2B NMDARs
  Currents induced by compound on its own: did not induce currents on its own
GluN1/GluN2B NMDARs; 100 μM
  Potentiation of NMDAR currents: did not exhibit potentiation of NMDAR currents
GluN1/GluN2B NMDARs; HEK293, Table 2, 100 μM, read-out: Normalized Potentiation GluN1/GluN2B
  activation at 100 µM: -4.82 ± 2.83%
